Consider two compounds from US20120094295A1, “NEURODEGENERATIVE DISEASE DIAGNOSTIC COMPOSITIONS AND METHODS OF USE” (The Johns Hopkins University, priority 2008, published 2012).

The test system of one series is EAAT2/GLT-1. Kind of series: EAAT2/GLT-1 gene expression in nasal olfactory epithelium. The note with it: in vivo.
The test system of series [1] is glutamate transporter EAAT2/GLT-1. Kind of series: Glutamate transporter function in vitro and in vivo.
Series [2] deals with primary mouse cultures of neurons and astrocytes. Kind of series: Oxygen-glucose deprivation (OGD) assay, neuronal cell death by LDH release. Format: cell-based. The settings on record: 72 hours treatment, then oxygen-glucose deprivation 1.5 hours. The protocol:
(§1) FIG. 3A is a graph showing EAAT2 promoter activation. EAAT2 promoter activation was examined by measuring luciferase activity using a reporter gene construct driven by a 2.5 kB promoter fragment of EAAT2 (Rothstein et al., Nature. 2005 Jan. 6; 433(7021):73-7). […] Glutamate-uptake was measured using standard techniques. […] Cells were then exposed to an oxygen-glucose-free environment for 1.5 hours (Goldberg et al). After the oxygen-glucose deprivation, cells were washed back into normal artificial cerebral spinal fluid (ACSF) solution and maintained for another 23 hours at 37 C, 5% CO2. Neuronal cell death was determined by measuring […] (LDH) release. Cells treated with MK-801, 6-cyano-7-nitroquinoxaline-2,3-dione), (CNQX) and nimodipine (MCN) were used as a positive control for neuroprotective activity.
In general terms: LDH in the medium is a marker of cell lysis.

The test system of a further series is EAAT2 promoter. Kind of series: EAAT2 promoter luciferase reporter gene assay in immortalized astrocytes. Format: cell-based, human. The note with it: luciferase reporter driven by 2.5 kB EAAT2 promoter fragment, 72 hours. The protocol: as §1
(In general: In a reporter assay the amount or activity of a reporter protein is the signal.)

Series [3] can be described thus: Safety and tolerability in healthy volunteers. In kind it is in vivo, human. The note with it: 750 or 1500 mg once a day oral, 14 days.
Procedure: Thirty-four normal volunteers were divided into three groups: placebo (N=6), TAP 750 mg administered orally once a day (N=12) and TAP 1500 mg administered orally once a day (N=12). Nasal biopsies were taken on day −1 (before drug treatment) and day 14. Plasma pharmacokinetics were done on day 1 and 13 and cerebrospinal fluid samples were taken on day 13 to study the levels of TAP in the brain.
R UX122 was administered in 3 groups (placebo, 750 mg/day, 1500 mg/day) starting day 1 to day 14. Blood samples were taken throughout the trial period to obtain basic pharmacokinetic analyses as well as to monitor for safety and tolerability. Every patient underwent a spinal tap to collect CSF on day 13.
In another series the test system is GLT-1 mRNA. The series is described as follows: GLT-1 mRNA in treated wild-type mice. Format: in vivo, mouse. The settings on record: WT mice, 12.5 or 25 mg/kg/day oral, 10 days. As for the experimental part: (§2) Total RNA was reversed transcribed using Applied Biosystems' high capacity cDNA archive kit. The quantitative real time RT-PCR assay was performed using the iCycler iQ Real-Time Detection System from BioRad. TaqMan Probes, which allow for specific mRNA amplification, were purchased from Applied Biosystems.

The conditions of series [4]: human, in vivo.
A short description of series [5]: Human plasma pharmacokinetics of thiamphenicol in healthy volunteers. The note with it: for AUC / Cmax / half-life / Tmax: human, plasma, po. In kind it is in vivo.
Another series has as its system GFAP mRNA. Kind of series: qPCR of nasal biopsy samples before and after drug treatment. Format: in vivo, human. The note with it: healthy volunteers, 750 or 1500 mg once a day oral, day 14 vs day -1. As for the experimental part:
(§3) Nasal biopsies were performed the day before the beginning of drug treatment (day −1) and on day 14. mRNA levels of several genes were quantified by qPCR analysis. Data are presented as fold increases in mRNA levels after drug treatment for each individual patient.
(§4) Nasal biopsies were taken on day −1 (before drug treatment) and day 14. […] In addition to EAAT2, the mRNA levels of the following genes were measured: GFAP (astrocytic expression in CNS), EAAT1 (astrocytic expression in CNS, expressed in precursor neuronal cells in olfactory epithelium), OMP (neuronal expression in olfactory epithelium and CNS), and MCT-4. […] The intra-patient variability was obtained by comparing mRNA levels obtained from the left and right side of the nose of each volunteer. This was important since the drug study was designed to obtain a biopsy from one side of the nose before drug treatment and from the opposite side of the nose after drug treatment. This allowed each person to serve as their own control and provided an opportunity to follow changes in mRNA levels within individuals.
(§5) Human nasal biopsies were performed by otolaryngologists specializing in sinus surgery. […] Local anesthesia was used for the procedure. Local anesthesia was applied to the nasal cavity. Lidocaine liquid 4% (Xylocaine®) and oxymetazoline HCl 0.05% (Afrin®) was sprayed in the nose. Then, if needed, 1% lidocaine with 1/100,000 epinephrine was injected to provide both anesthesia and vasoconstriction.
(§6) The procedure was performed under endoscopic control and used either a small curette or biting forceps for tissue removal. To avoid trauma to the cribriform plate, the biopsies were usually taken from the upper nasal septum. […] The tissue was removed from either the front or the back of the olfactory cleft, and sometimes both. Up to two blocks of tissue (approximately 2 mm each) were collected from each side of the nose. […] Subjects were instructed not to blow their nose and not to perform any strenuous physical activity for 24 hours after the procedure.
(§7) Healthy volunteers underwent a nasal biopsy on day −1 on one side of the nose only. R UX122 was administered in 3 groups (placebo, 750 mg/day, 1500 mg/day) starting day 1 to day 14. Blood samples were taken throughout the trial period to obtain basic pharmacokinetic analyses as well as to monitor for safety and tolerability. […] On day 14, a nasal biopsy was done on the other side of the nose.
as §2

For another series, the system named is OMP mRNA. The description is as above. Format: in vivo, human. The settings on record: healthy volunteers, 750 or 1500 mg once a day oral, day 14 vs day -1. As for the experimental part:
as §3, §4, §5, §6, §7, §2

The subject of another series is EAAT2/GLT-1 mRNA. The description is as above. The note with it: healthy volunteers, 750 or 1500 mg once a day oral, day 14 vs day -1. Format: in vivo, human. The protocol: as §3, §4, §5, §6, §7, §2
In another series the test system is MCT-4 mRNA. The description is as above. Format: in vivo, human. The settings on record: healthy volunteers, 750 or 1500 mg once a day oral, day 14 vs day -1. As for the experimental part: as §3, §4, §5, §6, §7, §2
Another series deals with EAAT1 mRNA. Described as above. Format: in vivo, human. The note with it: healthy volunteers, 750 or 1500 mg once a day oral, day 14 vs day -1. As for the experimental part: as §3, §4, §5, §6, §7, §2
The test system of a further series is glutamate uptake. Kind of series: Glutamate uptake in primary cultures of neurons and astrocytes. In kind it is cell-based. The settings on record: primary mouse cultures of neurons and astrocytes, 72 hours. The protocol:
as §1

Where two headings read alike, the source gives them in different places.

The AUC is concentration integrated over time. Read a high AUC as high exposure. What is called Cmax is the maximum level reached in the sampled fluid or tissue. As a reminder, the Tmax is the time from dosing to the highest level. With `CS(=O)(=O)c1ccc([C@@H](O)[C@@H](CO)NC(=O)C(Cl)Cl)cc1` [TAP, thiamphenicol], the “EAAT2/GLT-1 gene expression in nasal olfactory epithelium” value with EAAT2/GLT-1 is “increased EAAT2/GLT-1 gene expression in nasal olfactory epithelium”. The glutamate transporter function result in series [1] was “increased transporter function in vitro and in vivo”. Besides, the “neuroprotection (neuronal cell death, LDH release)” value in series [2] is listed as “dose-dependent neuroprotection”. Moreover, the EAAT2 promoter activation entry in the series on EAAT2 promoter was “activated the transporter on a promoter level”. In addition, in series [3], the serious adverse side-effects result is on record as “no serious adverse side-effects were reported”. The tolerability result in series [3] is “well tolerated at every dose”. Also, the “GLT-1 mRNA” value with GLT-1 mRNA was “dose-dependently increased”. In series [4], the “correlation between plasma concentrations and CSF levels” value was “linear correlation”. In series [5] (750 and 1500 mg/day oral), the “plasma concentrations versus dose” value is “dose-related plasma concentrations”. Also, the drug accumulation entry in series [5] (14 days once daily oral) was “no drug accumulation”. Besides, the AUC in series [5] (750 mg/day, oral 750 mg/day, Day 1) worked out at 42600 ng·h/mL; in series [5] (750 mg/day, oral 750 mg/day, Day 13) it was 51100 ng·h/mL; in [5] (1500 mg/day, oral 1500 mg/day, Day 1) it was 88000 ng·h/mL; in [5] (1500 mg/day, oral 1500 mg/day, Day 13), 96700 ng·h/mL. The Cmax was 6310 ng/mL in series [5] (750 mg/day, oral 750 mg/day, Day 1, plasma); 6550 ng/mL in [5] (750 mg/day, oral 750 mg/day, Day 13, plasma); 10700 ng/mL in series [5] (1500 mg/day, oral 1500 mg/day, Day 1, plasma); 11000 ng/mL in [5] (1500 mg/day, oral 1500 mg/day, Day 13, plasma). For the same compound, the half-life in series [5] (750 mg/day, oral 750 mg/day, Day 1, read-out: T ½ (converted)) is 4.1 ± 0.8 h; in series [5] (750 mg/day, oral 750 mg/day, Day 13, read-out: T ½ (converted)), 4.8 ± 0.6 h; in series [5] (1500 mg/day, oral 1500 mg/day, Day 1, read-out: T ½ (converted)) it was 4.2 ± 0.5 h; in [5] (1500 mg/day, oral 1500 mg/day, Day 13, read-out: T ½ (converted)), 5.7 ± 1 h; in series [5] (750 and 1500 mg/day oral, read-out: average half life) it was 4 to 6 h. Also, the Tmax amounted to 2 h in series [5] (750 mg/day, oral 750 mg/day, Day 1, read-out: Tmax median(range)); 2 h in [5] (750 mg/day, oral 750 mg/day, Day 13, read-out: Tmax median(range)); 2.5 h in series [5] (1500 mg/day, oral 1500 mg/day, Day 1, read-out: Tmax median(range)); 2 h in series [5] (1500 mg/day, oral 1500 mg/day, Day 13, read-out: Tmax median(range)). The “GFAP mRNA levels in olfactory epithelium after drug treatment” value in the series with GFAP mRNA is recorded as “dose-dependent positive trend towards an increase in mRNA levels”; in the series with GFAP mRNA (listed as thiamphenicol) it was “positive trend towards increased gene expression levels”. The results for the “OMP mRNA levels in olfactory epithelium after drug treatment” value in the series on OMP mRNA and with OMP mRNA (listed as thiamphenicol) were “no difference in mRNA levels” and “no change in gene expression levels”, respectively. The entries for the “EAAT2/GLT-1 mRNA levels in olfactory epithelium after drug treatment” value in the series with EAAT2/GLT-1 mRNA and in the series with EAAT2/GLT-1 mRNA (listed as thiamphenicol) were “dose-dependent positive trend towards an increase in mRNA levels” and “positive trend towards increased gene expression levels”, respectively. Also, the “MCT-4 mRNA levels in olfactory epithelium after drug treatment” value in the series on MCT-4 mRNA is recorded as “no difference in mRNA levels”; in the series with MCT-4 mRNA (listed as thiamphenicol), “no change in gene expression levels”. The figures for the “EAAT1 mRNA levels in olfactory epithelium after drug treatment” value in the series on EAAT1 mRNA and in the series with EAAT1 mRNA (listed as thiamphenicol) were “no difference in mRNA levels” and “no change in gene expression levels”, respectively. Also, in the series on glutamate uptake, the glutamate uptake entry is reported as “dose-dependently increased glutamate uptake”.

As to `CO/N=C(\C(=O)N[C@@H]1C(=O)N2C(C(=O)O)=C(CSc3nc(=O)c(=O)[nH]n3C)CS[C@H]12)c1csc(N)n1` [ceftriaxone], the “EAAT2/GLT-1 gene expression in nasal olfactory epithelium” value in the series with EAAT2/GLT-1 is “increased EAAT2/GLT-1 gene expression in nasal olfactory epithelium”. Besides, the glutamate transporter function entry in [1] is “increased transporter function in vitro and in vivo”. Further, the EAAT2 promoter activation entry in the series on EAAT2 promoter is “activated the transporter on a promoter level”.
